Where a SMILES comes first, the peptide text is derived from it. [ ]: non-standard residue; d: D form.
Experiments:
[1] = tested on: 3-day-old oral plaque biofilms; test: Plaque biofilms treated with oral rinse solutions for 14 days; assay type: cell-based; conditions: 0.12% CHX+10 μg/mL peptide, twice daily
Description: Briefly, after the formation of a 3-day-old biofilm, HA disks were rinsed in PBS for 1 minute and assigned to one of five treatment groups: (i) sterile water, (ii) Listerine Total Care Mouthwash (Johnson & Johnson Inc., Canada), (iii) GUM Paroex Mouthwash (Sunstar, USA), (iv) 0.12% CHX+10 μg/mL of peptide DJK-5, and (v) 0.12% CHX+10 μg/mL of peptide AB103-D. For each treatment, the disks were treated twice each day (i.e. at 8 am and […] for the first and second time, respectively). Treatment consisted of a droplet of 40 μl of each solution spread on the surface of the biofilm for 1 minute, followed by rinsing with PBS for 1 minute and then placing the disk back into the 24-well plates under anaerobic conditions at 37 °C. On the 0, 1st, 3rd, 7th, 10th, and 14th day, three disks from each group were collected for confocal microscopy analysis. Biofilms were stained with fluorescent dyes SYTO-9 and propidium iodide, which stain live cells green and dead cells red, respectively. The scale bar represents 200 μm. […]. […] The results indicated improved antibiofilm effects of AB103-D on 3-day-old oral plaque biofilms compared to treatment by various oral rinse solutions for 14 days.

[2] = tested on: MRSA biofilms on Ker-CT epidermal skin; test: Skin organoid biofilm model, AB103-D loaded Medvance foam dressing, MRSA; assay type: cell-based, methicillin resistant Staphylococcus aureus
[3] = tested on: N/TERT keratinocytes; test: Cytotoxicity (LDH release), N/TERT keratinocytes
[4] = tested on: MRSA planktonic cells; test: Planktonic inhibition by AB103-D single substitution variants, MRSA; assay type: cell-based, methicillin resistant Staphylococcus aureus; conditions: read-out: IC50 of AB103-D alone, planktonic
Source text: (§1) A series of single amino acid substitution variants of the AB103-D peptide were generated on cellulose arrays using SPOT-synthesis technology [Hilpert, K., Winkler, D. F., & Hancock, R. E. W. (2007). Peptide arrays on cellulose support: SPOT synthesis, a time and cost efficient method for synthesis of large numbers of peptides in a parallel and addressable fashion. Nature Protocols, 2(6), 1333-1349; Frank, R. (2002). The SPOT-synthesis technique. Synthetic peptide arrays on membrane supports-principles and applications. J Immunol Methods, 267(1), 13-26] to test for enhanced Gram-negative activity against P. aeruginosa and determine which residues contribute to the antibiofilm effects of this peptide. 96 AB103-D variants were generated by replacing each residue in the parent peptide with one of D-Arg, D-Lys, D-Glu, Gly, D-Ala, D-Ile, D-Leu, D-Val and D-Trp. The biofilm inhibitory activity of all 96 AB103-D variants was subsequently assessed against MRSA USA300 LAC or P. aeruginosa PAO1 in a microtitre plate assay [Haney, E. F., Trimble, M. J., & Hancock, R. E. W. (2021). Microtiter plate assays to assess antibiofilm activity against bacteria. Nature Protocols, 16(5), 2615-2632]. […].

[5] = tested on: P. aeruginosa LESB58 biofilms on Ker-CT epidermal skin; test: Skin organoid biofilm model, AB103-D loaded Medvance foam dressing, P. aeruginosa LESB58; assay type: cell-based, Pseudomonas aeruginosa
[6] = tested on: S. aureus USA300 (MRSA) wound biofilms; test: Porcine dermal biofilm wound infection model, MRSA; assay type: in vivo, porcine; methicillin resistant Staphylococcus aureus; conditions: compared with ciprofloxacin, mupirocin
Source text: (§2) . Peptide (PEP1=DJK5; PEP3=AB103-D) solutions were used to hydrate Puracol® resorbable dressings made of collagen either alone or in the presence of antibiotic (ABX1=ciprofloxacin). Briefly, partial thickness wounds (10 mm×7 mm×1 mm deep) were created on the backs of the animals then infected with log-phase cultures of bacteria and allowed biofilms to form for 24-hrs. Dressings were applied to infected wounds of either MRSA S. aureus USA300 (FIG. 6A) or P. aeruginosa 27312 (FIG. 6B) as either a single treatment (day 1) or twice treated (Day 1 and 4) and all wounds were excised on day 7 for CFU renumeration. The amount of peptide applied in all treatments was 10 mg while 1 mg of ciprofloxacin was used in and treatment containing antibiotic. Mupirocin and silver sulfadiazine (SSD) were used as positive controls.
(§3) In vivo porcine dermal biofilm model: Peptide loaded dressings were evaluated using a porcine dermal biofilm infection model as described previously [Davis, S. C., et al. (2018). The wound-healing effects of a next-generation anti-biofilm silver Hydrofiber wound dressing on deep partial-thickness wounds using a porcine model. International Wound Journal, 15(5), 834-839]. Briefly, partial thickness wounds (10 mm×7 mm×1 mm deep) were created on the backs of the animals then infected with log-phase cultures of bacteria and allowed biofilms to form for 24-hrs. […]

[7] = tested on: 3-day-old oral plaque biofilms; test: Oral plaque biofilm model, brief (1 minute) exposure, dead cell volume; assay type: cell-based; conditions: 10 μg/ml, 1 minute once or three times, compared to DJK5
[8] = tested on: P. aeruginosa biofilms on N/TERT epithelial skin; test: Skin organoid biofilm model, peptide-loaded collagen dressings, P. aeruginosa; assay type: cell-based, Pseudomonas aeruginosa; conditions: compared to DJK-5 and ciprofloxacin
[9] = tested on: P. aeruginosa 27312 wound biofilms; test: Porcine dermal biofilm wound infection model, P. aeruginosa; assay type: in vivo, porcine; Pseudomonas aeruginosa; conditions: compared with ciprofloxacin, silver sulfadiazine
Source text: as §2, §3

[10] = tested on: P. aeruginosa PAO1 biofilms; test: Checkerboard biofilm synergy of AB103-D with antimicrobials, PAO1; assay type: cell-based, Pseudomonas aeruginosa
[11] = tested on: P. aeruginosa PAO1 planktonic cells; test: Planktonic inhibition by AB103-D single substitution variants, P. aeruginosa; assay type: cell-based; conditions: Pseudomonas; read-out: IC50 of AB103-D alone, planktonic
Source text: as §1

[12] = tested on: human bronchiolar epithelial cells (HBEs); test: Cytotoxicity (LDH release), human bronchiolar epithelial cells
[13] = tested on: MRSA biofilms on N/TERT epithelial skin; test: Skin organoid biofilm model, peptide-loaded collagen dressings, MRSA; assay type: cell-based, methicillin resistant Staphylococcus aureus; conditions: compared to DJK-5 and ciprofloxacin
[14] = tested on: MRSA USA 300 LAC biofilms; test: Checkerboard biofilm synergy of AB103-D with antimicrobials, MRSA; assay type: cell-based, methicillin resistant Staphylococcus aureus

CC[C@@H](C)[C@@H](NC(=O)[C@@H](C)NC(=O)[C@@H](CCCNC(=N)N)NC(=O)[C@@H](Cc1c[nH]c2ccccc12)NC(=O)[C@@H](CCC(N)=O)NC(=O)[C@H](NC(=O)[C@@H](CCCNC(=N)N)NC(=O)[C@H](NC(=O)[C@H](NC(=O)[C@@H](CCCNC(=N)N)NC(=O)[C@H](NC(=O)[C@H](N)CCCNC(=N)N)C(C)C)C(C)C)[C@H](C)CC)C(C)C)C(N)=O [AB103-D, rvrvirvqwrai-NH2] (H-[dR][dV][dR][dV][dI][dR][dV][dQ][dW][dR][dA][dI]-NH2)
Proportion of dead bacteria within the biofilm [1]: more effective than DJK5
Residual plaque biovolume [1]: superior than DJK5
Bacterial burden on organoid skin, loaded bandage [2]: effectively reduce the bacterial burden
Cytotoxicity (LDH) [3]: low toxicity
IC50 [4]: 1.96 µM
Bacterial burden on organoid skin, loaded bandage [5]: effectively reduce the bacterial burden
Efficacy in porcine skin infection [6]: worked as well or better than ciprofloxacin, mupirocin (for MRSA)
Killing of 3-day-old oral plaque biofilms [7]: significantly more effective than DJK5
Antibiofilm activity from collagen dressing [8]: clearly superior activity to both DJK-5 and ciprofloxacin
Efficacy in porcine skin infection [9]: worked as well or better than ciprofloxacin, mupirocin (for MRSA) or silver sulfadiazine (for P. aeruginosa)
MBIC of AB103-D alone ([10]; PAO1, BM2 minimal media, at least 70% reduction of biofilm biomass): 2 µg/mL
Synergy with several other antimicrobials ([10]; PAO1 biofilms): proved synergistic with several other antimicrobials
IC50 [11]: 16 µM
Cytotoxicity (LDH) [12]: low toxicity
Antibiofilm activity from collagen dressing [13]: clearly superior activity to both DJK-5 and ciprofloxacin
Synergy with several other antimicrobials ([14]; MRSA USA 300 biofilms): proved synergistic with several other antimicrobials
MBIC of AB103-D alone ([14]; MRSA, 10% TSB + 0.1% glucose, at least 70% reduction of biofilm biomass): 1 µg/mL
